Data published in US11524958B2, “Tricyclic compound as CRTH2 inhibitor” (CHIA TAI TIANQING PHARMACEUTICAL GROUP CO., LTD., priority 2016, dated 2022).

These compounds were tested against T1, CRTH2 receptor (Homo sapiens, UniProt Q9Y5Y4) (assay: PathHunter CHO-K1 CRTH2 β-arrestin assay (DiscoverX), antagonism of PGD2). Settings: PathHunter CHO-K1 CRTH2 β-arrestin cells; compound 30 min, then EC80 agonist (PGD2) 90 min, 37° C.; chemiluminescent signal.
T1 construct: host or cells: CHO-K1 (PathHunter β-arrestin line)
T1 sequence (Q9Y5Y4 1-395): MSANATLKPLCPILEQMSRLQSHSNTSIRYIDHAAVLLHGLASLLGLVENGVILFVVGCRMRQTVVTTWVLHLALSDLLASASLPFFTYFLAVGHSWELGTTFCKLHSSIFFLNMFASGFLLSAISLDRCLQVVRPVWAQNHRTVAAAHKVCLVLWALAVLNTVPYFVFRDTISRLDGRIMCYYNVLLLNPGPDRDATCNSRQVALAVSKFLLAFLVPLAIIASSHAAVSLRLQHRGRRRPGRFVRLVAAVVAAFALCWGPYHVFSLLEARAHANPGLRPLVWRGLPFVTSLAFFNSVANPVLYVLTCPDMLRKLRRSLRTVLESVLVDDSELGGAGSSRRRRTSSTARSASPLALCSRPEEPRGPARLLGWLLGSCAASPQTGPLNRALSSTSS
Assay type: cell-based
Method: DiscoverX Corporation in the U.S was entrusted to complete this experiment by β-arrestin assay. The experimental method and results were listed below: PathHunter® CHO-K1 CRTH2 β-arrestin cells (DiscoverX, catalogue number 93-0291C2) grew under standard conditions, and were inoculated into a white-wall 384-well microplate at a density of 5,000 cells/well. 20 μL of Cell Plating Reagent 1 was used in each well. Before the test, the cells were incubated overnight at 37° C./5% CO2. A test compound was serially diluted in DMSO with a dilution factor of 3-fold to give 8 concentrations of the test compound. Shortly before the test, the serially diluted test compound was further diluted with the test buffer to 5 times of the test concentration. 5 μL of the further diluted test compound was added to the cells, and the cells were incubated for 30 min at 37° C. The concentration of the solvent was 1%. 5 μL of 6× EC80 agonist (PGD2) buffer was added to the cells, and the cells were incubated for 90 min at 37° C. Measured signals were generated by one-time addition of 15 μL (50% v/v) of PathHunter detection mixture reagent and subsequent one-hour incubation. The microplate was read through the chemiluminescent signals of PerkinElmer Envision™ reader. Biological activity of the test compound was analyzed by CBIS data analysis suite (ChemInnovation, CA), and was denoted as IC50 value.
In the case of `CS(=O)(=O)c1ccc(Cc2c3n(c4ccccc24)CC(C(=O)O)CC3)c(C(F)(F)F)c1` (single isomer, unassigned) [Example 16 peak1], the IC50 is reported as > 1000 nM. In the case of `CS(=O)(=O)c1ccc(Cc2c3n(c4ccccc24)CC(C(=O)O)CC3)c(C(F)(F)F)c1` (single isomer, unassigned) [Example 16 peak2], the IC50 is reported as < 100 nM. In the case of `CS(=O)(=O)c1ccc(Cc2c3n(c4ccc(Cl)cc24)CC(C(=O)O)CC3)c(C(F)(F)F)c1` (single isomer, unassigned) [Example 22 peak1], the IC50 is reported as < 100 nM. For `CS(=O)(=O)c1ccc(Cc2c3n(c4ccc(Cl)cc24)CC(C(=O)O)CC3)c(C(F)(F)F)c1` (single isomer, unassigned) [Example 22 peak2], the IC50 was > 1000 nM. An IC50 of 100 to 1000 nM was found for `CS(=O)(=O)c1ccc(Cc2c3n(c4ccc(F)cc24)CC(C(=O)O)CC3)c(C(F)(F)F)c1` (single isomer, unassigned) [Example 25 peak1] in this work. In the case of `CS(=O)(=O)c1ccc(Cc2c3n(c4ccc(F)cc24)CC(C(=O)O)CC3)c(C(F)(F)F)c1` (single isomer, unassigned) [Example 25 peak2], the IC50 is reported as < 100 nM. With `CS(=O)(=O)c1ccc(Cc2c3n(c4ccccc24)C(C(=O)O)CCC3)cc1` (stereo not shown) [Example 1] the IC50 was > 1000 nM. An IC50 of 100 to 1000 nM was found for `O=C(O)C1CCCc2c(Cc3cccnc3S(=O)(=O)c3ccccc3)c3ccccc3n21` (stereo not shown) [Example 2] in this work. An IC50 of 100 to 1000 nM was found for `CS(=O)(=O)c1ccc(Cc2c3n(c4ccccc24)C(C(=O)O)CCC3)c(C(F)(F)F)c1` (stereo not shown) [Example 6] in this work. For `CS(=O)(=O)c1ccc(Cc2c3n(c4ccccc24)C(CC(=O)O)CCC3)cc1` (stereo not shown) [Example 7], the IC50 was > 1000 nM. `CS(=O)(=O)c1ccc(Cc2c3n(c4ccccc24)C(CC(=O)O)CCC3)c(C(F)(F)F)c1` (stereo not shown) [Example 8] was tested, and the IC50 was > 1000 nM. In the case of `CS(=O)(=O)c1ccc(Cc2c3n(c4ccccc24)CC(CC(=O)O)CC3)cc1` (stereo not shown) [Example 9], the IC50 is reported as > 1000 nM. With `O=C(O)CC1CCc2c(Cc3ccc4ccccc4n3)c3ccccc3n2C1` (stereo not shown) [Example 10] the IC50 was > 1000 nM. `O=C(O)CC1CCc2c(Cc3cccnc3S(=O)(=O)c3ccccc3)c3ccccc3n2C1` (stereo not shown) [Example 11] was tested, and the IC50 was > 1000 nM. `CS(=O)(=O)c1ccc(Cc2c3n(c4ccccc24)CC(CC(=O)O)CC3)c(C(F)(F)F)c1` (stereo not shown) [Example 15] was tested, and the IC50 was > 1000 nM. With `CS(=O)(=O)c1ccc(Cc2c3n(c4ccccc24)CC(C(=O)O)CC3)c(C(F)(F)F)c1` (stereo not shown) [Example 16] the IC50 was < 100 nM. An IC50 of 100 to 1000 nM was found for `O=C(O)C1CCc2c(Cc3cccnc3S(=O)(=O)c3ccc(Cl)cc3)c3ccccc3n2C1` (stereo not shown) [Example 17] in this work. For `CC1(C(=O)O)CCc2c(Cc3ccc(S(C)(=O)=O)cc3C(F)(F)F)c3ccccc3n2C1` (stereo not shown) [Example 18], the IC50 was > 1000 nM. In the case of `CC1(C(=O)O)CCc2c(Cc3ccc(C(F)(F)F)nc3)c3ccccc3n2C1` (stereo not shown) [Example 20], the IC50 is reported as > 1000 nM. With `CC1(C(=O)O)CCc2c(Cc3ccc(S(C)(=O)=O)cc3F)c3ccccc3n2C1` (stereo not shown) [Example 21] the IC50 was > 1000 nM. In the case of `CS(=O)(=O)c1ccc(Cc2c3n(c4ccc(Cl)cc24)CC(C(=O)O)CC3)c(C(F)(F)F)c1` (stereo not shown) [Example 22], the IC50 is reported as < 100 nM. An IC50 of 100 to 1000 nM was found for `CS(=O)(=O)c1ccc(Cc2c3n(c4ccc(Cl)cc24)CC(C(=O)O)CC3)c(F)c1` (stereo not shown) [Example 23] in this work. In the case of `O=C(O)C1CCc2c(Cc3ccc4c(c3)CCS4(=O)=O)c3cc(Cl)ccc3n2C1` (stereo not shown) [Example 24], the IC50 is reported as > 1000 nM. With `CS(=O)(=O)c1ccc(Cc2c3n(c4ccc(F)cc24)CC(C(=O)O)CC3)c(C(F)(F)F)c1` (stereo not shown) [Example 25] the IC50 was < 100 nM. An IC50 of 100 to 1000 nM was found for `CS(=O)(=O)c1ccc(Cc2c3n(c4ccc(F)cc24)CC(C(=O)O)CC3)c(F)c1` (stereo not shown) [Example 26] in this work. With `O=C(O)C1CCc2c(Cc3ccc4ccccc4n3)c3cc(F)ccc3n2C1` (stereo not shown) [Example 27] the IC50 was > 1000 nM. `O=C(O)C1CCc2c(Cc3ccc4c(c3)CCS4(=O)=O)c3cc(F)ccc3n2C1` (stereo not shown) [Example 28] was tested, and the IC50 was > 1000 nM. For `CS(=O)(=O)c1ccc(Cc2c3ccccc3n3cc(C(=O)O)ncc23)cc1` [Example 29], the IC50 was > 1000 nM. `CS(=O)(=O)c1ccc(Cc2c3ccccc3n3cc(C(=O)O)ncc23)cn1` [Example 30] was tested, and the IC50 was > 1000 nM. In the case of `CS(=O)(=O)c1ccc(Cc2c3ccccc3n3cc(C(=O)O)ncc23)c(C(F)(F)F)c1` [Example 31], the IC50 is reported as > 1000 nM. An IC50 of 100 to 1000 nM was found for `CS(=O)(=O)c1ccc(Cc2c3n(c4ccccc24)CC(C(=O)O)C3)c(C(F)(F)F)c1` (stereo not shown) [Example 32] in this work. `O=C(O)C1CCc2c(Cc3ccc4c(c3)C(F)C(F)(F)S4(=O)=O)c3cc(F)ccc3n2C1` (stereo not shown) [Example 33] was tested, and the IC50 was > 1000 nM. `COc1ccc2c(c1)c(Cc1ccc(S(C)(=O)=O)cc1C(F)(F)F)c1n2CC(C(=O)O)CC1` (stereo not shown) [Example 34] was tested, and the IC50 was < 100 nM. `CS(=O)(=O)c1ccc(Cc2c3n(c4ccc(OC(F)F)cc24)CC(C(=O)O)CC3)c(C(F)(F)F)c1` (stereo not shown) [Example 35] was tested, and the IC50 was < 100 nM. `O=C(O)C1CCc2c(Cc3cc4c(cc3C(F)(F)F)S(=O)(=O)CC4)c3cc(F)ccc3n2C1` (stereo not shown) [Example 36] was tested, and the IC50 was > 1000 nM. In the case of `O=C(O)C1CCc2c(Cc3cc4c(cc3C(F)(F)F)S(=O)(=O)CC4)c3cc(Cl)ccc3n2C1` (stereo not shown) [Example 37], the IC50 is reported as > 1000 nM. `O=C(O)C1CCc2c(Cc3cccc4c3CCS4(=O)=O)c3cc(F)ccc3n2C1` (stereo not shown) [Example 38] was tested, and the IC50 was > 1000 nM. For `CS(=O)(=O)c1ccc(Cc2c3n(c4ccccc24)CC(C(=O)O)CC3)nc1` (stereo not shown) [Example 39], the IC50 was > 1000 nM. `COc1cc(C(F)(F)F)c(Cc2c3n(c4ccccc24)CC(C(=O)O)CC3)cn1` (stereo not shown) [Example 40] was tested, and the IC50 was > 1000 nM. In the case of `CS(=O)(=O)c1ccc(Cc2c3n(c4ccccc24)CC(C(=O)O)CC3)cn1` (stereo not shown) [Example 41], the IC50 is reported as > 1000 nM. With `CS(=O)(=O)c1ccc(Cc2c3n(c4ncccc24)CC(C(=O)O)CC3)c(C(F)(F)F)c1` (stereo not shown) [Example 42] the IC50 was > 1000 nM. `O=C(O)C1CCc2c(Cc3ccc4c(c3)C(F)(F)CCS4(=O)=O)c3cc(F)ccc3n2C1` (stereo not shown) [Example 43] was tested, and the IC50 was > 1000 nM. With `O=C(O)C1CCc2c(Cc3ccc4c(c3)S(=O)(=O)CC4)c3cc(F)ccc3n2C1` (stereo not shown) [Example 44] the IC50 was > 1000 nM.
